Assay [1] concerns 22RV1 (Prostate Carcinoma). Put plainly: Bliss excess, mean over the matrix (fraction); higher = more synergy. Put shortly: (§1)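 After 24 hours at 37°C and 5% CO2 in 1536-well plates, cells in DMEM/F12 or RPMI plus 10% FBS received two-drug dose matrices for 72 hours. Viability came from CellTiter-Glo 2.0 luminescence and was scaled as inhibition, anchored at 0 by vehicle wells and at 1 by blank wells. Combination Emax is taken as the second-highest inhibition in the matrix, and Bliss excess as the observed combination effect less EA + EB − EA·EB, with EA and EB the single-agent effects.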

The test system of assay [2] is A2780 (Ovarian Carcinoma). Described as above. In a few lines:
as §1

Assay [3] deals with CGTH-W-1 (Thyroid Gland Carcinoma). Described as above. Put shortly: as §1
In the next assay the test system is EB2 (Burkitt's Lymphoma). The assay is described as above. Put shortly:
as §1

In assay [4] the test system is HCC1395 (Breast Carcinoma). The description is as above. In a few lines:
as §1

In another assay the test system is HCC70 (Breast Carcinoma). The description is as above. Put shortly: as §1
The test system of assay [5] is JHH-2 (Hepatocellular Carcinoma). The description is as above. In a few lines: as §1
Assay [6] has as its system LU-165 (Small Cell Lung Carcinoma). Described as above. In a few lines: as §1
Assay [7] concerns MDA-MB-436 (Breast Carcinoma). The assay is described as above. In a few lines:
as §1

For assay [8], the system named is MHH-ES-1 (Ewing's Sarcoma). The description is as above. Put shortly:
as §1

Assay [9] relates to NCI-H1703 (Squamous Cell Lung Carcinoma). The description is as above. In a few lines: as §1
Assay [10] has as its system NCI-H441 (Lung Adenocarcinoma). The assay is described as above. In a few lines:
as §1

Assay [11] deals with PEO1 (Ovarian Carcinoma). The assay is described as above. Put shortly:
as §1

In assay [12] the test system is SK-HEP-1 (Hepatocellular Carcinoma). Described as above. Put shortly:
as §1

The test system of assay [13] is SW620 (Colorectal Carcinoma). The assay is described as above. In a few lines: as §1
Assay [14] has as its system UACC-812 (Breast Carcinoma). Described as above. Put shortly:
as §1

Another assay concerns WM1552C (Melanoma). The assay is described as above. Put shortly:
as §1

The subject of assay [15] is KYSE-220 (Esophageal Squamous Cell Carcinoma). Put plainly: combination Emax (second highest fraction inhibited in the dose matrix, 72 h); higher = more inhibition; extreme values may be limits of the assay. In a few lines: as §1
For assay [16], the system named is MDA-MB-436 (Breast Carcinoma). Described as above. In a few lines: as §1
The test system of assay [17] is PEO1 (Ovarian Carcinoma). The description is as above. In a few lines:
as §1
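For Bliss excess, mean over the matrix in this document: after 72 h of two-drug dosing.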

As for `CN(CCO)CC[C@H](CSc1ccccc1)Nc1ccc(S(=O)(=O)NC(=O)c2ccc(N3CCC([C@@H](O)c4ccccc4-c4ccc(Cl)cc4)CC3)cc2)cc1S(=O)(=O)C(F)(F)F` [AZD4320] + Cc1cc2ncnn2cc1Nc1ncc2c(n1)n(C1CCOCC1)c(=O)n2C [AZD7648] (first compound max 1 µM, 7x7, partner max 10 µM), the Bliss excess in assay [1] is -0.0532; in [2], -0.0469; in assay [3], -0.0436; in the assay on EB2 (Burkitt's Lymphoma) it was 0.007; in assay [4] it was -0.037; in the assay with HCC70 (Breast Carcinoma) it was -0.01. Moreover, the Bliss excess in [5] is -0.02; in assay [6] it was 0.0018; in [7], -0.0488; in [8] it was -0.0097; in assay [9], -0.0096; in [10], -0.043. The Bliss excess was -0.0389 in the assay on PEO1 (Ovarian Carcinoma) [11]; -0.051 in assay [12]; -0.0309 in assay [13]; -0.0342 in assay [14]; -0.0505 in the assay on WM1552C (Melanoma). For the same compound, the entries for the “combination Emax” value (in [15]; in assay [16]; in the assay with PEO1 (Ovarian Carcinoma) [17]) were 0.11, 0.177 and 0.386, respectively.

Source of the values: the supplement of paper PMC11061612.
